Measurements taken from patent US6825170B2, “6-O-acyl ketolide antibacterials” (Ortho-McNeil Pharmaceutical, Inc., priority 2001, dated 2004).
In brackets after ≈: the same amount, converted by molar mass.

How the values were obtained:
Assay in all cases: MIC, microdilution broth method (NCCLS)
Format in all cases: cell-based
Settings in all cases: 35° C., 16-20 hours
[1] = tested on: S. aureus ATCC29213
Procedure: (§1) Minimal inhibitory concentration (MIC) has been an indicator of in vitro antibacterial activity widely used in the art. The in vitro antimicrobial activity of the compounds was determined by the microdilution broth method following the test method from the National Committee for Clinical Laboratory Standards (NCCLS). This method is described in the NCCLS Document M7-A4, Vol.17, No.2, “Methods for Dilution Antimicrobial Susceptibility Test for Bacteria that Grow Aerobically—Fourth Edition”, which is incorporated herein by reference.
(§2) In this method two-fold serial dilutions of drug in cation adjusted Mueller-Hinton broth are added to wells in microdilution trays. The test organisms are prepared by adjusting the turbidity of actively growing broth cultures so that the final concentration of test organism after it is added to the wells is approximately 5×10^4 CFU/well.
(§3) Following inoculation of the microdilution trays, the trays are incubated at 35° C. for 16-20 hours and then read. […] The amount of growth in the wells containing the test compound is compared with the amount of growth in the growth-control wells (no test compound) used in each tray. As set forth in Table 1, compounds of the present invention were tested against a variety of Gram positive and Gram negative pathogenic bacteria resulting in a range of activities depending on the organism tested.

[2] = tested on: E. faecalis ATCC29212
Procedure: as §1, §2, §3

[3] = tested on: S. pneumoniae ATCC49619
Procedure: as §1, §2, §3

[4] = tested on: H. influenzae ATCC49247
Procedure: as §1, §2, §3

MIC (B: S. aureus ATCC29213) [1] | MIC (C: E. faecalis ATCC29212) [2] | MIC (D: S. pneumoniae ATCC49619) [3] | MIC (E: H. influenzae ATCC49247) [4] | Compound
>16 µg/mL | 4 µg/mL (≈ 5.72 µM) | 2 µg/mL (≈ 2.86 µM) | >16 µg/mL | CC[C@H]1OC(=O)[C@H](C)C(=O)[C@H](C)[C@@H](O[C@@H]2O[C@H](C)C[C@H](N(C)C)[C@H]2O)[C@](C)(OC(=O)NNC(C)=O)C[C@@H](C)C(=O)[C@H](C)[C@H]2NC(=O)O[C@@]21C [Compound 812]
16 µg/mL (≈ 21 µM) | 1 µg/mL (≈ 1.31 µM) | 0.25 µg/mL (≈ 0.329 µM) | 16 µg/mL (≈ 21 µM) | CC[C@H]1OC(=O)[C@H](C)C(=O)[C@H](C)[C@@H](O[C@@H]2O[C@H](C)C[C@H](N(C)C)[C@H]2O)[C@](C)(OC(=O)NNC(=O)c2ccccc2)C[C@@H](C)C(=O)[C@H](C)[C@H]2NC(=O)O[C@@]21C [Compound 813]
8 µg/mL (≈ 10.1 µM) | 0.5 µg/mL (≈ 0.632 µM) | 0.12 µg/mL (≈ 0.152 µM) | 8 µg/mL (≈ 10.1 µM) | CC[C@H]1OC(=O)[C@H](C)C(=O)[C@H](C)[C@@H](O[C@@H]2O[C@H](C)C[C@H](N(C)C)[C@H]2O)[C@](C)(OC(=O)NNC(=O)OCc2ccccc2)C[C@@H](C)C(=O)[C@H](C)[C@H]2NC(=O)O[C@@]21C [Compound 814]
4 µg/mL (≈ 5.06 µM) | 1 µg/mL (≈ 1.27 µM) | 0.25 µg/mL (≈ 0.316 µM) | 16 µg/mL (≈ 20.3 µM) | CC[C@H]1OC(=O)[C@H](C)C(=O)[C@H](C)[C@@H](O[C@@H]2O[C@H](C)C[C@H](N(C)C)[C@H]2O)[C@](C)(OC(=O)NNC(=O)N(C)c2ccccc2)C[C@@H](C)C(=O)[C@H](C)[C@H]2NC(=O)O[C@@]21C [Compound 815]
2 µg/mL (≈ 2.38 µM) | 0.25 µg/mL (≈ 0.298 µM) | 0.06 µg/mL (≈ 0.0715 µM) | 8 µg/mL (≈ 9.54 µM) | CC[C@H]1OC(=O)[C@H](C)C(=O)[C@H](C)[C@@H](O[C@@H]2O[C@H](C)C[C@H](N(C)C)[C@H]2O)[C@](C)(OC(=O)N(C)NCc2ccc(-c3cnccn3)cc2)C[C@@H](C)C(=O)[C@H](C)[C@H]2NC(=O)O[C@@]21C [Compound 817]
4 µg/mL (≈ 4.77 µM) | 0.25 µg/mL (≈ 0.298 µM) | 0.06 µg/mL (≈ 0.0716 µM) | 8 µg/mL (≈ 9.55 µM) | CC[C@H]1OC(=O)[C@H](C)C(=O)[C@H](C)[C@@H](O[C@@H]2O[C@H](C)C[C@H](N(C)C)[C@H]2O)[C@](C)(OC(=O)N(C)NCc2ccc(-c3ccccn3)cc2)C[C@@H](C)C(=O)[C@H](C)[C@H]2NC(=O)O[C@@]21C [Compound 818]
16 µg/mL (≈ 18.8 µM) | 1 µg/mL (≈ 1.17 µM) | 0.25 µg/mL (≈ 0.293 µM) | >16 µg/mL | CC[C@H]1OC(=O)[C@H](C)C(=O)[C@H](C)[C@@H](O[C@@H]2O[C@H](C)C[C@H](N(C)C)[C@H]2O)[C@](C)(OC(=O)N(C)N(C)Cc2ccc(-c3cnccn3)cc2)C[C@@H](C)C(=O)[C@H](C)[C@H]2NC(=O)O[C@@]21C [Compound 819]
1 µg/mL (≈ 1.17 µM) | 0.25 µg/mL (≈ 0.293 µM) | 0.06 µg/mL (≈ 0.0703 µM) | 8 µg/mL (≈ 9.38 µM) | CC[C@H]1OC(=O)[C@H](C)C(=O)[C@H](C)[C@@H](O[C@@H]2O[C@H](C)C[C@H](N(C)C)[C@H]2O)[C@](C)(OC(=O)N(C)NCCc2ccc(-c3cnccn3)cc2)C[C@@H](C)C(=O)[C@H](C)[C@H]2NC(=O)O[C@@]21C [Compound 820]
2 µg/mL (≈ 2.31 µM) | 0.5 µg/mL (≈ 0.577 µM) | 0.12 µg/mL (≈ 0.138 µM) | 16 µg/mL (≈ 18.5 µM) | CC[C@H]1OC(=O)[C@H](C)C(=O)[C@H](C)[C@@H](O[C@@H]2O[C@H](C)C[C@H](N(C)C)[C@H]2O)[C@](C)(OC(=O)N(C)N(C)CCc2ccc(-c3cnccn3)cc2)C[C@@H](C)C(=O)[C@H](C)[C@H]2NC(=O)O[C@@]21C [Compound 821]
2 µg/mL (≈ 2.32 µM) | 1 µg/mL (≈ 1.16 µM) | 0.12 µg/mL (≈ 0.139 µM) | 16 µg/mL (≈ 18.6 µM) | CC[C@H]1OC(=O)[C@H](C)C(=O)[C@H](C)[C@@H](O[C@@H]2O[C@H](C)C[C@H](N(C)C)[C@H]2O)[C@](C)(OC(=O)Nn2ccc(-c3ccc(-c4ncccn4)cc3)c2)C[C@@H](C)C(=O)[C@H](C)[C@H]2NC(=O)O[C@@]21C [Compound 824]

The next lines start with the compound.

Compound | MIC (B: S. aureus ATCC29213) [1] | MIC (C: E. faecalis ATCC29212) [2] | MIC (D: S. pneumoniae ATCC49619) [3] | MIC (E: H. influenzae ATCC49247) [4]
CCC1OC(=O)C(C)C(=O)C(C)C(OC2OC(C)CC(N(C)C)C2O)C(C)(OC(=O)OCC=C(F)c2ccc(-c3ncccn3)cc2)CC(C)C(=O)C(C)C2NC(=O)OC12C (stereo not shown) [Compound 224] | 0.12 µg/mL (≈ 0.14 µM) | 0.06 µg/mL (≈ 0.0702 µM) | ≦0.015 μg/mL | 2 µg/mL (≈ 2.34 µM)
CCC1OC(=O)C(C)C(=O)C(C)C(OC2OC(C)CC(N(C)C)C2O)C(C)(OC(=O)OCCCCc2ccc(-c3ncccn3)cc2)CC(C)C(=O)C(C)C2NC(=O)OC12C (stereo not shown) [Compound 286] | 0.25 µg/mL (≈ 0.293 µM) | 0.25 µg/mL (≈ 0.293 µM) | 0.06 µg/mL (≈ 0.0703 µM) | 4 µg/mL (≈ 4.69 µM)
CCC1OC(=O)C(C)C(=O)C(C)C(OC2OC(C)CC(N(C)C)C2O)C(C)(OC(=O)NOCc2ccc(-c3cnccn3)cc2)CC(C)C(=O)C(C)C2NC(=O)OC12C (stereo not shown) [Compound 601] | 0.25 µg/mL (≈ 0.303 µM) | 0.12 µg/mL (≈ 0.145 µM) | 0.03 µg/mL (≈ 0.0363 µM) | 2 µg/mL (≈ 2.42 µM)
CCC1OC(=O)C(C)C(=O)C(C)C(OC2OC(C)CC(N(C)C)C2O)C(C)(OC(=O)NOCC#Cc2ccc(-c3cnccn3)cc2)CC(C)C(=O)C(C)C2NC(=O)OC12C (stereo not shown) [Compound 603] | 0.25 µg/mL (≈ 0.294 µM) | 0.12 µg/mL (≈ 0.141 µM) | 0.03 µg/mL (≈ 0.0353 µM) | 2 µg/mL (≈ 2.35 µM)
CC[C@H]1OC(=O)[C@H](C)C(=O)[C@H](C)[C@@H](O[C@@H]2O[C@H](C)C[C@H](N(C)C)[C@H]2O)[C@](C)(OC(=O)NOCC#Cc2cnc3ccccc3c2)C[C@@H](C)C(=O)[C@H](C)[C@H]2NC(=O)O[C@@]21C [Compound 618] | 0.25 µg/mL (≈ 0.304 µM) | 0.06 µg/mL (≈ 0.0729 µM) | 0.03 µg/mL (≈ 0.0365 µM) | 1 µg/mL (≈ 1.22 µM)
CC[C@H]1OC(=O)[C@@](C)(F)C(=O)[C@H](C)[C@@H](O[C@@H]2O[C@H](C)C[C@H](N(C)C)[C@H]2O)[C@](C)(OC(=O)NOC/C=C/c2ccc(-c3ncccn3)cc2)C[C@@H](C)C(=O)[C@H](C)[C@H]2NC(=O)O[C@@]21C [Compound 622] | 0.25 µg/mL (≈ 0.287 µM) | 0.25 µg/mL (≈ 0.287 µM) | 0.03 µg/mL (≈ 0.0345 µM) | 4 µg/mL (≈ 4.6 µM)
CC[C@H]1OC(=O)[C@@](C)(F)C(=O)[C@H](C)[C@@H](O[C@@H]2O[C@H](C)C[C@H](N(C)C)[C@H]2O)[C@](C)(OC(=O)NOCC#Cc2cnc3ccccc3c2)C[C@@H](C)C(=O)[C@H](C)[C@H]2NC(=O)O[C@@]21C [Compound 623] | 0.25 µg/mL (≈ 0.297 µM) | 0.12 µg/mL (≈ 0.143 µM) | 0.03 µg/mL (≈ 0.0357 µM) | 4 µg/mL (≈ 4.76 µM)
CC[C@H]1OC(=O)[C@H](C)C(=O)[C@H](C)[C@@H](O[C@@H]2O[C@H](C)C[C@H](N(C)C)[C@H]2O)[C@](C)(OC(=O)NNS(=O)(=O)c2ccc(C)cc2)C[C@@H](C)C(=O)[C@H](C)[C@H]2NC(=O)O[C@@]21C [Compound 809] | 1 µg/mL (≈ 1.23 µM) | 0.5 µg/mL (≈ 0.617 µM) | 0.03 µg/mL (≈ 0.037 µM) | 2 µg/mL (≈ 2.47 µM)
CC[C@H]1OC(=O)[C@H](C)C(=O)[C@H](C)[C@@H](O[C@@H]2O[C@H](C)C[C@H](N(C)C)[C@H]2O)[C@](C)(OC(=O)NN(C(C)=O)S(=O)(=O)c2ccc(C)cc2)C[C@@H](C)C(=O)[C@H](C)[C@H]2NC(=O)O[C@@]21C [Compound 810] | 2 µg/mL (≈ 2.34 µM) | 0.5 µg/mL (≈ 0.586 µM) | 0.06 µg/mL (≈ 0.0703 µM) | 4 µg/mL (≈ 4.69 µM)
CC[C@H]1OC(=O)[C@H](C)C(=O)[C@H](C)[C@@H](O[C@@H]2O[C@H](C)C[C@H](N(C)C)[C@H]2O)[C@](C)(OC(=O)NNS(=O)(=O)c2ccc(-n3cccn3)cc2)C[C@@H](C)C(=O)[C@H](C)[C@H]2NC(=O)O[C@@]21C [Compound 811] | 2 µg/mL (≈ 2.32 µM) | 0.5 µg/mL (≈ 0.579 µM) | 0.06 µg/mL (≈ 0.0695 µM) | 4 µg/mL (≈ 4.63 µM)
CC[C@H]1OC(=O)[C@H](C)C(=O)[C@H](C)[C@@H](O[C@@H]2O[C@H](C)C[C@H](N(C)C)[C@H]2O)[C@](C)(OC(=O)NN2CCCCC2)C[C@@H](C)C(=O)[C@H](C)[C@H]2NC(=O)O[C@@]21C [Compound 816] | 16 µg/mL (≈ 22.1 µM) | 1 µg/mL (≈ 1.38 µM) | 0.5 µg/mL (≈ 0.69 µM) | 16 µg/mL (≈ 22.1 µM)
CC[C@H]1OC(=O)[C@H](C)C(=O)[C@H](C)[C@@H](O[C@@H]2O[C@H](C)C[C@H](N(C)C)[C@H]2O)[C@](C)(OC(=O)NN=Cc2ccc(-c3ncccn3)cc2)C[C@@H](C)C(=O)[C@H](C)[C@H]2NC(=O)O[C@@]21C [Compound 825] | 4 µg/mL (≈ 4.86 µM) | 0.5 µg/mL (≈ 0.608 µM) | 0.12 µg/mL (≈ 0.146 µM) | 16 µg/mL (≈ 19.4 µM)
